Where two headings read alike, the source gives them in different places.
Key:
Assay in all cases: Glasshouse assay for herbicidal activity (pre- and post-emergence), percentage phytotoxicity
Assay type in all cases: in vivo
[1] = tested on: Echinochloa crus-galli (ECHCG); conditions: Echinochloa crus-galli
Procedure, shortened: (§1)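 Percent injury was estimated by eye on a scale where 0% means no damage and 100% complete damage. Ratings came 15 DAA post-emergence and 20 DAA pre-emergence, with plants held under 16 h light and 65% humidity at 24/18 °C or 20/16 °C day/night.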

[2] = tested on: Alopecurus myosuroides (ALOMY); conditions: Alopecurus myosuroides
Procedure, shortened: as §1

Lolium perenne (LOLPE) = conditions: Lolium perenne
Procedure, shortened: as §1

Avena fatua (AVEFA) = conditions: Avena fatua
Procedure, shortened: as §1

[3] = post-emergence, 360 h, 250 g/ha, post-emergence, 15 DAA, visual assessment (100%=total damage, 0%=no damage), read-out: Post-emergence herbicidal activity (percentage phytotoxicity) ECHCG POST
[4] = pre-emergence, 480 h, 250 g/ha, pre-emergence, 20 DAA, visual assessment (100%=total damage, 0%=no damage), read-out: Pre-emergence herbicidal activity (percentage phytotoxicity) ECHCG PRE
[5] = post-emergence, 360 h, 250 g/ha, post-emergence, 15 DAA, visual assessment (100%=total damage, 0%=no damage), read-out: Post-emergence herbicidal activity (percentage phytotoxicity) ALOMY POST
[6] = pre-emergence, 480 h, 250 g/ha, pre-emergence, 20 DAA, visual assessment (100%=total damage, 0%=no damage), read-out: Pre-emergence herbicidal activity (percentage phytotoxicity) ALOMY PRE
[7] = post-emergence, 360 h, 250 g/ha, post-emergence, 15 DAA, visual assessment (100%=total damage, 0%=no damage), read-out: Post-emergence herbicidal activity (percentage phytotoxicity) LOLPE POST
[8] = pre-emergence, 480 h, 250 g/ha, pre-emergence, 20 DAA, visual assessment (100%=total damage, 0%=no damage), read-out: Pre-emergence herbicidal activity (percentage phytotoxicity) LOLPE PRE
[9] = post-emergence, 360 h, 250 g/ha, post-emergence, 15 DAA, visual assessment (100%=total damage, 0%=no damage), read-out: Post-emergence herbicidal activity (percentage phytotoxicity) AVEFA POST
[10] = pre-emergence, 480 h, 250 g/ha, pre-emergence, 20 DAA, visual assessment (100%=total damage, 0%=no damage), read-out: Pre-emergence herbicidal activity (percentage phytotoxicity) AVEFA PRE
[11] = post-emergence, 360 h, Rate 250 g/ha, post-emergence, visual assessment 15 DAA, 100%=total damage, 0%=no damage, read-out: Post-emergence herbicidal activity (percentage phytotoxicity) ECHCG POST
[12] = pre-emergence, 480 h, Rate 250 g/ha, pre-emergence, visual assessment 20 DAA, 100%=total damage, 0%=no damage, read-out: Pre-emergence herbicidal activity (percentage phytotoxicity) ECHCG PRE
[13] = post-emergence, 360 h, Rate 250 g/ha, post-emergence, visual assessment 15 DAA, 100%=total damage, 0%=no damage, read-out: Post-emergence herbicidal activity (percentage phytotoxicity) ALOMY POST
[14] = pre-emergence, 480 h, Rate 250 g/ha, pre-emergence, visual assessment 20 DAA, 100%=total damage, 0%=no damage, read-out: Pre-emergence herbicidal activity (percentage phytotoxicity) ALOMY PRE
[15] = post-emergence, 360 h, Rate 250 g/ha, post-emergence, visual assessment 15 DAA, 100%=total damage, 0%=no damage, read-out: Post-emergence herbicidal activity (percentage phytotoxicity) LOLPE POST
[16] = pre-emergence, 480 h, Rate 250 g/ha, pre-emergence, visual assessment 20 DAA, 100%=total damage, 0%=no damage, read-out: Pre-emergence herbicidal activity (percentage phytotoxicity) LOLPE PRE
[17] = post-emergence, 360 h, Rate 250 g/ha, post-emergence, visual assessment 15 DAA, 100%=total damage, 0%=no damage, read-out: Post-emergence herbicidal activity (percentage phytotoxicity) AVEFA POST
[18] = pre-emergence, 480 h, Rate 250 g/ha, pre-emergence, visual assessment 20 DAA, 100%=total damage, 0%=no damage, read-out: Pre-emergence herbicidal activity (percentage phytotoxicity) AVEFA PRE

C=CCNC(=O)CC1CC(=O)C(c2c(C)cc(/C=C/C)cc2CC)C1=O (stereo not drawn) [Compound B193]
pest or weed control at 250 g/ha ([1]; post-emergence, 360 h, POST-emergence, rate 250 g/ha, visual score 15 DAA (100%=total damage, 0%=no damage), read-out: Post-emergence herbicidal activity (percentage phytotoxicity) ECHCG POST): 100%
pest or weed control at 250 g/ha ([1]; pre-emergence, 480 h, PRE-emergence, rate 250 g/ha, visual score 20 DAA (100%=total damage, 0%=no damage), read-out: Pre-emergence herbicidal activity (percentage phytotoxicity) ECHCG PRE): 100%
pest or weed control at 250 g/ha ([2]; post-emergence, 360 h, POST-emergence, rate 250 g/ha, visual score 15 DAA (100%=total damage, 0%=no damage), read-out: Post-emergence herbicidal activity (percentage phytotoxicity) ALOMY POST): 100%
pest or weed control at 250 g/ha ([2]; pre-emergence, 480 h, PRE-emergence, rate 250 g/ha, visual score 20 DAA (100%=total damage, 0%=no damage), read-out: Pre-emergence herbicidal activity (percentage phytotoxicity) ALOMY PRE): 100%
pest or weed control at 250 g/ha (Lolium perenne (LOLPE); post-emergence, 360 h, POST-emergence, rate 250 g/ha, visual score 15 DAA (100%=total damage, 0%=no damage), read-out: Post-emergence herbicidal activity (percentage phytotoxicity) LOLPE POST): 100%
pest or weed control at 250 g/ha (Lolium perenne (LOLPE); pre-emergence, 480 h, PRE-emergence, rate 250 g/ha, visual score 20 DAA (100%=total damage, 0%=no damage), read-out: Pre-emergence herbicidal activity (percentage phytotoxicity) LOLPE PRE): 100%
pest or weed control at 250 g/ha (Avena fatua (AVEFA); post-emergence, 360 h, POST-emergence, rate 250 g/ha, visual score 15 DAA (100%=total damage, 0%=no damage), read-out: Post-emergence herbicidal activity (percentage phytotoxicity) AVEFA POST): 100%
pest or weed control at 250 g/ha (Avena fatua (AVEFA); pre-emergence, 480 h, PRE-emergence, rate 250 g/ha, visual score 20 DAA (100%=total damage, 0%=no damage), read-out: Pre-emergence herbicidal activity (percentage phytotoxicity) AVEFA PRE): 90%

C=CCNC(=O)CC1CC(=O)C(c2c(C)cc(-c3ncc(Cl)cc3F)cc2C)C1=O (stereo not drawn) [Compound B116]
pest or weed control at 250 g/ha [1, 3]: 100%
pest or weed control at 250 g/ha [1, 4]: 100%
pest or weed control at 250 g/ha [2, 5]: 100%
pest or weed control at 250 g/ha [2, 6]: 100%
pest or weed control at 250 g/ha (Lolium perenne (LOLPE); [7]): 100%
pest or weed control at 250 g/ha (Lolium perenne (LOLPE); [8]): 100%
pest or weed control at 250 g/ha (Avena fatua (AVEFA); [9]): 100%
pest or weed control at 250 g/ha (Avena fatua (AVEFA); [10]): 90%

C=C(C)CNC(=O)CC1CC(=O)C(c2c(C)cc(-c3ccc(Cl)cn3)cc2C)C1=O (stereo not drawn) [Compound B361]
pest or weed control at 250 g/ha [1, 11]: 100%
pest or weed control at 250 g/ha [1, 12]: 100%
pest or weed control at 250 g/ha [2, 13]: 100%
pest or weed control at 250 g/ha [2, 14]: 90%
pest or weed control at 250 g/ha (Lolium perenne (LOLPE); [15]): 90%
pest or weed control at 250 g/ha (Lolium perenne (LOLPE); [16]): 90%
pest or weed control at 250 g/ha (Avena fatua (AVEFA); [17]): 100%
pest or weed control at 250 g/ha (Avena fatua (AVEFA); [18]): 100%

Cc1cc(C)c(C2C(=O)CC(CC(=O)NCc3ccccc3C(F)(F)F)C2=O)c(C)c1 (stereo not drawn) [Compound B19]
pest or weed control at 250 g/ha [1, 3]: 70%
pest or weed control at 250 g/ha [1, 4]: 90%
pest or weed control at 250 g/ha [2, 5]: 50%
pest or weed control at 250 g/ha [2, 6]: 10%
pest or weed control at 250 g/ha (Lolium perenne (LOLPE); [7]): 70%
pest or weed control at 250 g/ha (Lolium perenne (LOLPE); [8]): 80%
pest or weed control at 250 g/ha (Avena fatua (AVEFA); [9]): 50%
pest or weed control at 250 g/ha (Avena fatua (AVEFA); [10]): 20%

Cc1cc(-c2ncc(Cl)cc2F)cc(C)c1C1C(=O)CC(CC(=O)NCc2ncccc2Cl)C1=O (stereo not drawn) [Compound A114]
pest or weed control at 250 g/ha ([1]; post-emergence, 360 h, Rate 250 g/ha, post-emergence, assessed visually 15 DAA, 100%=total damage, 0%=no damage, read-out: Post-emergence herbicidal activity (percentage phytotoxicity) ECHCG POST): 100%
pest or weed control at 250 g/ha ([1]; pre-emergence, 480 h, Rate 250 g/ha, pre-emergence, assessed visually 20 DAA, 100%=total damage, 0%=no damage, read-out: Pre-emergence herbicidal activity (percentage phytotoxicity) ECHCG PRE): 100%
pest or weed control at 250 g/ha ([2]; post-emergence, 360 h, Rate 250 g/ha, post-emergence, assessed visually 15 DAA, 100%=total damage, 0%=no damage, read-out: Post-emergence herbicidal activity (percentage phytotoxicity) ALOMY POST): 100%
pest or weed control at 250 g/ha ([2]; pre-emergence, 480 h, Rate 250 g/ha, pre-emergence, assessed visually 20 DAA, 100%=total damage, 0%=no damage, read-out: Pre-emergence herbicidal activity (percentage phytotoxicity) ALOMY PRE): 90%
pest or weed control at 250 g/ha (Lolium perenne (LOLPE); post-emergence, 360 h, Rate 250 g/ha, post-emergence, assessed visually 15 DAA, 100%=total damage, 0%=no damage, read-out: Post-emergence herbicidal activity (percentage phytotoxicity) LOLPE POST): 100%
pest or weed control at 250 g/ha (Lolium perenne (LOLPE); pre-emergence, 480 h, Rate 250 g/ha, pre-emergence, assessed visually 20 DAA, 100%=total damage, 0%=no damage, read-out: Pre-emergence herbicidal activity (percentage phytotoxicity) LOLPE PRE): 90%
pest or weed control at 250 g/ha (Avena fatua (AVEFA); post-emergence, 360 h, Rate 250 g/ha, post-emergence, assessed visually 15 DAA, 100%=total damage, 0%=no damage, read-out: Post-emergence herbicidal activity (percentage phytotoxicity) AVEFA POST): 100%
pest or weed control at 250 g/ha (Avena fatua (AVEFA); pre-emergence, 480 h, Rate 250 g/ha, pre-emergence, assessed visually 20 DAA, 100%=total damage, 0%=no damage, read-out: Pre-emergence herbicidal activity (percentage phytotoxicity) AVEFA PRE): 90%

Cc1cc(-c2ncc(Cl)cn2)cc(C)c1C1C(=O)CC(CC(=O)NCc2cccc(Br)c2)C1=O (stereo not drawn) [Compound B339]
pest or weed control at 250 g/ha [1, 11]: 100%
pest or weed control at 250 g/ha [1, 12]: 100%
pest or weed control at 250 g/ha [2, 13]: 100%
pest or weed control at 250 g/ha [2, 14]: 40%
pest or weed control at 250 g/ha (Lolium perenne (LOLPE); [15]): 100%
pest or weed control at 250 g/ha (Lolium perenne (LOLPE); [16]): 90%
pest or weed control at 250 g/ha (Avena fatua (AVEFA); [17]): 100%
pest or weed control at 250 g/ha (Avena fatua (AVEFA); [18]): 70%

Reference: US10206394B2, “Herbicidal compounds” (Syngenta Participations AG, priority 2014, dated 2019)
